Measured values from the CheMixHub viscosity set.
± gives the uncertainty stated by the source.

Assay: xn = mol fraction of the nth substance listed

O=S1(=O)CCCC1 + CCc1ccccc1
viscosity [mPa·s]
Details	101 kPa	101.3 kPa
303.15 K, x2 = 0.9106	0.7155 ± 0.0074	0.7155 ± 0.037
313.15 K, x2 = 0.7254	0.9235 ± 0.011	–
323.15 K, x2 = 0.7254	0.8125 ± 0.01	0.8125 ± 0.041
323.15 K, x2 = 0.8194	0.6653 ± 0.0078	0.6653 ± 0.035

O=P([O-])(O)O.[Na+] + O
viscosity [mPa·s]
Details	298.15 K	303.15 K	308.15 K	313.15 K
101 kPa, x1 = 0.0018	0.9216 ± 0.0082	0.8373 ± 0.0077	0.7482 ± 0.0072	–
101 kPa, x1 = 0.0054	0.9881 ± 0.009	0.887 ± 0.0081	0.8017 ± 0.0074	–
101 kPa, x1 = 0.0089	1.077 ± 0.0096	0.9691 ± 0.0088	0.8669 ± 0.0082	–
101 kPa, x1 = 0.012	1.17 ± 0.01	1.053 ± 0.0096	0.9301 ± 0.0089	–
101 kPa, x1 = 0.016	1.284 ± 0.011	1.151 ± 0.011	1.008 ± 0.0099	–
101.32 kPa, x1 = 0.1245	20.44 ± 2.1	–	–	–
101.32 kPa, x1 = 0.1772	–	–	–	28.59 ± 2.9

Cc1ccc(O)cc1 + Oc1ccccc1
298.15 K, 101 kPa
Details	viscosity [mPa·s]
x2 = 0.1598	13.27 ± 0.21
x2 = 0.3191	12.18 ± 0.19
x2 = 0.3851	11.75 ± 0.18
x2 = 0.5218	10.99 ± 0.17
x2 = 0.6385	10.42 ± 0.16
x2 = 0.7587	9.835 ± 0.14
x2 = 0.8783	9.463 ± 0.14

Cc1cccc(C)c1 + CCC(C)O
308.15 K, 101 kPa
Details	viscosity [mPa·s]
x2 = 0.0658	0.532 ± 0.011
x2 = 0.1295	0.544 ± 0.011
x2 = 0.2112	0.563 ± 0.012
x2 = 0.3085	0.592 ± 0.012
x2 = 0.3828	0.622 ± 0.013
x2 = 0.4366	0.653 ± 0.014
x2 = 0.5058	0.696 ± 0.015
x2 = 0.6047	0.792 ± 0.017
x2 = 0.698	0.919 ± 0.019
x2 = 0.8006	1.071 ± 0.022
x2 = 0.9493	1.724 ± 0.036

Cc1ccc(O)cc1 + c1ccccc1
308.15 K, 101 kPa
Details	viscosity [mPa·s]
x1 = 0.0751	0.6025 ± 0.0052
x1 = 0.1778	0.749 ± 0.0063
x1 = 0.292	0.9762 ± 0.008
x1 = 0.4109	1.327 ± 0.011
x1 = 0.532	1.87 ± 0.015
x1 = 0.6653	2.706 ± 0.021
x1 = 0.7851	4.175 ± 0.031
x1 = 0.8374	4.963 ± 0.037
x1 = 0.9459	7.462 ± 0.051

Cc1cccc(C)c1 + CS(C)=O
viscosity [mPa·s], 101.3 kPa
Details	x2 = 0.1004	x2 = 0.2027	x2 = 0.3047	x2 = 0.4044	x2 = 0.5057	x2 = 0.6045	x2 = 0.705	x2 = 0.803	x2 = 0.9011
298.15 K	0.631 ± 0.017	0.7 ± 0.019	0.782 ± 0.02	0.877 ± 0.022	0.99 ± 0.025	1.116 ± 0.028	1.269 ± 0.031	1.45 ± 0.035	1.68 ± 0.04
303.15 K	0.593 ± 0.016	0.657 ± 0.018	0.73 ± 0.019	0.815 ± 0.021	0.914 ± 0.023	1.026 ± 0.026	1.168 ± 0.029	1.325 ± 0.032	1.528 ± 0.037
308.15 K	0.561 ± 0.015	0.617 ± 0.017	0.684 ± 0.018	0.76 ± 0.02	0.85 ± 0.022	0.952 ± 0.024	1.076 ± 0.027	1.219 ± 0.03	1.397 ± 0.034

CC(O)CC(C)(C)O (stereo unspecified) + Nc1ccccc1
viscosity [mPa·s], 101 kPa
Details	x1 = 0.0963	x1 = 0.1952	x1 = 0.2931	x1 = 0.3958	x1 = 0.4941	x1 = 0.5915	x1 = 0.6855	x1 = 0.8047	x1 = 0.8966
308.15 K	3.187 ± 0.32	3.549 ± 0.36	4.028 ± 0.4	4.615 ± 0.46	5.519 ± 0.55	6.694 ± 0.67	8.195 ± 0.82	10.82 ± 1.1	14.34 ± 1.4
318.15 K	2.348 ± 0.24	2.62 ± 0.26	3.031 ± 0.3	3.543 ± 0.35	4.32 ± 0.43	5.405 ± 0.54	6.826 ± 0.68	9.45 ± 0.95	12.55 ± 1.3

Cc1ccc(O)cc1 + Nc1ccccc1
viscosity [mPa·s], 101.33 kPa
Details	x1 = 0.2696	x1 = 0.4987	x1 = 0.5914	x1 = 0.7696	x1 = 0.8857
298.15 K	6.95 ± 0.069	10.7 ± 0.11	12.4 ± 0.12	14.4 ± 0.14	14.5 ± 0.14
323.15 K	2.93 ± 0.029	3.97 ± 0.04	4.26 ± 0.043	4.62 ± 0.046	4.71 ± 0.047
